# In publication PMC7112848 (Journal of Virological Methods, 2008):
# How the values were obtained:
# [1] = molecular target: rgH5N1 NA (Influenza A virus, UniProt Q6DPL2); type: biochemical
# [2] = tested on: viral NAs; type: biochemical, reverse-genetic influenza A viruses rgH1N1, rgH5N1, rgH1N3
# Sequence of rgH5N1 NA (Q6DPL2 whole entry, looked up): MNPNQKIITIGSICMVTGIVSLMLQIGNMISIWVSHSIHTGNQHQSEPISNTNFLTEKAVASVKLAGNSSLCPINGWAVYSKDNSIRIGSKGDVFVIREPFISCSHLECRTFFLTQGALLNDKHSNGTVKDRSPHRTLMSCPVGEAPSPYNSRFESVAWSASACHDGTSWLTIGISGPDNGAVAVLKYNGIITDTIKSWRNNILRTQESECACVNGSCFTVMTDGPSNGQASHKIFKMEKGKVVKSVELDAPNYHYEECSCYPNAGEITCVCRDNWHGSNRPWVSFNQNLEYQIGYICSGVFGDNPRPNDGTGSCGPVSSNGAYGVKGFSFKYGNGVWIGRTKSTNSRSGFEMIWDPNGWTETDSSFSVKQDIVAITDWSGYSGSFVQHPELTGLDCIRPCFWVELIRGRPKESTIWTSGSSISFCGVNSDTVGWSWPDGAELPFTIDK
compound,measurement,setting,value
"CC(=O)N[C@@H]1[C@@H](O)C[C@](Oc2ccc3c(C)cc(=O)oc3c2)(C(=O)O)O[C@H]1C(O)[C@H](O)CO (stereo partly drawn) [MUNANA, 2′-(4-methylumbelliferyl)-α-D-N-acetylneuraminic acid]",Km,[1],15 ± 3 µM
same,Km,[2],15 to 18 µM
